In patent US20050112059A1, “Enhancement of radiotherapy by an exogenous cardiac glycoside” (Phoenix Biotechnology, Inc., priority 2003, published 2005):

Assays:
[1] = system: PC-3 cells; assay: Clonogenic cell survival with caspase-3 inhibitor, oleandrin and radiation; assay type: cell-based, human; conditions: for Survival of cells (%) following radiation of 2 Gy / Survival of cells (%) following radiation of 6 Gy / Survival of cells (%) following radiation of O Gy: oleandrin 0.05 μg/ml 24 hours, ZDEVD-FMK 100 μM added 2 hours before oleandrin; for Survival of cells (%) following radiation of 2 Gy: control 74.6 ± 3.4; for Survival of cells (%) following radiation of 6 Gy: control 7.8 ± 0.6; for Survival of cells (%) following radiation of O Gy: no radiation, percent control, mean±SE
Description: PC-3 cells were incubated with 0.05 μg/ml oleandrin for 24 hours before being irradiated with 2 or 6 Gy. […] Clonogenic cell survival was then determined. Colonies were counted and the survival of cells (percent control) was calculated. Data are presented as mean±SE from three experiments.

[2] = system: PC-3 cells; assay: Apoptosis by TUNEL assay and flow cytometry; assay type: cell-based, human
Description: PC-3 cells were incubated with 0.05 μg/ml oleandrin for 24 hours, irradiated at 2 Gy, or both. The control cells were untreated. The medium containing oleandrin was removed, fresh medium was added, and 24 hours later the apoptotic index was determined.
Apoptosis was determined by staining and flow cytometry analysis. The terminal deoxynucleotidyltransferase (“TdT”) dUTP nick end labeling (“TUNEL”) assay to identify the DNA fragmentation (APO-DIRECT kit, Pharmingen, San Diego, Calif.) was performed according to the manufacturer's instructions. Briefly, cells (2×10^6) were fixed in 1% paraformaldehyde and washed in PBS. Cells were suspended in 70% ethanol and stored at −20° C. until use. Re-suspended cells were stained in a solution containing TdT and FITC-dUTP and incubated overnight at room temperature in the dark. They were then rinsed and re-suspended in 0.5 ml propidium iodide/RNase A solution and analyzed by flow cytometry.

[3] = system: PC-3 cells; assay: Colony forming ability of PC-3 cells after oleandrin and graded γ-irradiation; assay type: cell-based, human
Description: The human prostate carcinoma cell line PC-3 was obtained from the American Type Culture Collection and maintained in RPMI 1640 medium supplemented with 10% fetal calf serum, 10,000 U/ml of penicillin-streptomycin, and 2 mM L-glutamine. Cells were grown as monolayers in 75-cm^2 flasks and maintained in a humidified 5% CO2/95% air atmosphere at 37.8° C.
[…] graded doses (2, 4 or 6 Gy) of γ-rays using a ^137Cs source (3.7 Gy/min) and assayed for colony forming ability by replating them in specified numbers into 100-mm dishes containing drug-free media. After 12 days of incubation, cells were stained with 0.5% crystal violet in absolute ethanol, and colonies with more than 50 cells were counted. The average survival levels were fit by least squares regression using a linear quadratic model. Survival curves were constructed with normalized values for the cytotoxicity induced by oleandrin alone. Oleandrin by itself reduced plating efficiency from the 95% control value to 21%.
The untreated control samples are represented by the open circles and the oleandrin treated samples are represented by the filled circles. Values shown are the means±SE for three independent experiments. The enhancement factor at the cell survival fraction of 0.1 was 1.32.

[4] = system: human tumor cell lines; conditions: cited from earlier work
[5] = system: NF-kB; conditions: cited from earlier work
[6] = system: PC-3 cells; assay: Hoechst 33258 staining of apoptotic cells, fluorescent microscope; assay type: cell-based, human; conditions: oleandrin plus radiation versus any other treated or control population
Text: In addition, the control cells and the experimental cells were stained with a fluorescent dye, Hoechst 33258, that binds to fragmented DNA. The PC-3 cells were observed under a fluorescent microscope.

[7] = system: PC-3 cells; assay: Effect of duration of oleandrin exposure on radiosensitivity (colony survival, 3 Gy); assay type: cell-based, human
Description: The magnitude of radiosensitization depended on duration of exposure of cells to oleandrin prior to radiation. PC-3 cells were incubated in the presence of 0.05 μg/ml oleandrin for 1-24 hours. After oleandrin treatment, cells were irradiated with 3 Gy radiation and plated as in Example 1. Colonies were counted after 12 days and percent surviving fractions were plotted. […] Cell survival after 3 Gy radiation only was 50% compared to 30% after 3 Gy radiation plus 0.05 μg/ml oleandrin. Values shown are means±SE for three independent experiments. The average survival levels were fit by least squares regression using a linear quadratic model.

[8] = system: caspase-3; assay: Caspase-3 activation by western blotting; assay type: cell-based, human
Description: To determine whether caspase-3 activation was involved in the oleandrin-induced enhancement of PC-3 cell radioresponse, cells were treated with 5 Gy or 0.05 μg/ml oleandrin or a combination of both treatments for 24 hours. Cells were assayed for caspase-3 activation 24 hours after treatment using western blotting. cells were lysed in a buffer containing 50 mM Tris-HCl (pH 8), 450 mM NaCl, 1% triton X-100, 5 mM EDTA, 1% (v/v) of protease inhibitor cocktail, and 1% (v/v) phosphatase inhibitor cocktails I and II (Sigma, St. Louis, Mo.). Protein ([…] per lane) was separated by sodium dodecyl sulfate-polyacrylamide gel electrophoresis (“SDS-PAGE”) and transferred to a polyvinylidene difluoride (“PVDF”) membrane (Bio-Rad Laboratories, Hercules, Calif.). The membrane was blocked by 5% non-fat dry milk in Tris-buffered saline and 0.1% Tween-20 (“TBS-T”) and before incubation with a designated primary antibody (Pharmingen, San Diego, Calif.). After washing the membrane with TBS-T, it was incubated in secondary antibody and the immunoreaction was visualized using an ECL western blotting kit (Amersham Corp., Arlington Heights, Ill.).

[9] = system: murine tumor cell lines; conditions: cited from earlier work
[10] = system: human tumor cells including squamous cell carcinoma and melanoma; conditions: squamous cell carcinoma and melanoma among types; cited from earlier work
[11] = system: normal human lung fibroblasts; conditions: cited from earlier work
[12] = system: A549 human lung adenocarcinoma cells; conditions: cited from earlier work

Compound: ZDEVD-FMK [Z-DEVD-FMK]
- Survival of cells (%) following radiation of 2 Gy [1]: 77.8 ± 3.2%
- Survival of cells (%) following radiation of 6 Gy [1]: 8.6 ± 2.1%
- effect on oleandrin-induced enhancement of radiation response ([1]; ZDEVD-FMK 100 μM with oleandrin 0.05 μg/ml): abolished
- Survival of cells (%) following radiation of O Gy [1]: 97.4 ± 1.7%

Compound: CO[C@H]1C[C@H](O[C@H]2CC[C@@]3(C)[C@H](CC[C@@H]4[C@@H]3CC[C@]3(C)[C@@H](C5=CC(=O)OC5)[C@@H](OC(C)=O)C[C@]43O)C2)O[C@@H](C)[C@@H]1O [Oleandrin, oleandrin]
- percentage of apoptotic cells ([2]; 0.05 μg/ml oleandrin 24 hours alone, measured 24 hours later, control 2.1±0.4): 63.5±6.1%
- percentage of apoptotic cells ([2]; 0.05 μg/ml oleandrin 24 hours plus 2 Gy, 2 Gy alone 8.2±3.4%): 85.8±5.3%
- combination effect on apoptosis versus individual treatments ([2]; oleandrin 0.05 μg/ml plus 2 Gy): more than the additive effects
- cytotoxicity by itself ([3]; oleandrin 0.025 μg/ml): non-cytotoxic
- influence on radiosensitization ([3]; oleandrin 0.025 μg/ml): no significant influence
- enhancement factor at the cell survival fraction of 0.1 ([3]; oleandrin 0.05 μg/ml 24 hours, then 2, 4 or 6 Gy γ-rays): 1.32
- plating efficiency ([3]; oleandrin 0.05 μg/ml for 24 hours, by itself (no radiation), control value 95%): 21%
- induction of apoptosis [4]: induces apoptosis
- activation of NF-kB [5]: inhibits activation
- apoptotic cells observed (Hoechst 33258) [6]: More apoptotic cells
- radiosensitizing effect versus duration of exposure ([7]; 0.05 μg/ml oleandrin 1-24 hours, 3 Gy): increased as the duration of exposure to oleandrin increased up to 24 hours
- cell survival ([7]; 3 Gy radiation plus 0.05 μg/ml oleandrin, exposure 1 hour, 3 Gy only 50%): 30%
- activation of caspase-3 ([8]; 0.05 μg/ml oleandrin alone, 24 hours, assayed 24 hours after treatment): effective
- level of caspase-3 activation ([8]; 0.05 μg/ml oleandrin combined with 5 Gy): higher
- Survival of cells (%) following radiation of 2 Gy [1]: 55.5 ± 1.9%
- Survival of cells (%) following radiation of 6 Gy [1]: 3.1 ± 0.8%
- Survival of cells (%) following radiation of O Gy [1]: 88.9 ± 2.9%
- induction of apoptosis [9]: not in murine tumor cell lines

Compound: C[C@@H]1O[C@@H](O[C@H]2C[C@@H](O)[C@]3(CO)[C@H]4[C@H](O)C[C@]5(C)[C@@H](C6=CC(=O)OC6)CC[C@]5(O)[C@@H]4CC[C@]3(O)C2)[C@H](O)[C@H](O)[C@H]1O [Ouabain, ouabain]
- radiosensitization [10]: radiosensitize
- modification of radioresponse [11]: ineffective
- in vitro radiosensitivity [12]: enhance in vitro radiosensitivity
